{
  "source": "patent US20240425496A1",
  "about": "“AZETIDINYL PYRIMIDINES AND USES THEREOF” (Aerie Pharmaceuticals, Inc., priority 2021, published 2024)",
  "key": {"JAK1": {"biological_target": "JAK1 (Homo sapiens (Human), UniProt P23458)", "sequence (P23458 whole entry, species assumed)": "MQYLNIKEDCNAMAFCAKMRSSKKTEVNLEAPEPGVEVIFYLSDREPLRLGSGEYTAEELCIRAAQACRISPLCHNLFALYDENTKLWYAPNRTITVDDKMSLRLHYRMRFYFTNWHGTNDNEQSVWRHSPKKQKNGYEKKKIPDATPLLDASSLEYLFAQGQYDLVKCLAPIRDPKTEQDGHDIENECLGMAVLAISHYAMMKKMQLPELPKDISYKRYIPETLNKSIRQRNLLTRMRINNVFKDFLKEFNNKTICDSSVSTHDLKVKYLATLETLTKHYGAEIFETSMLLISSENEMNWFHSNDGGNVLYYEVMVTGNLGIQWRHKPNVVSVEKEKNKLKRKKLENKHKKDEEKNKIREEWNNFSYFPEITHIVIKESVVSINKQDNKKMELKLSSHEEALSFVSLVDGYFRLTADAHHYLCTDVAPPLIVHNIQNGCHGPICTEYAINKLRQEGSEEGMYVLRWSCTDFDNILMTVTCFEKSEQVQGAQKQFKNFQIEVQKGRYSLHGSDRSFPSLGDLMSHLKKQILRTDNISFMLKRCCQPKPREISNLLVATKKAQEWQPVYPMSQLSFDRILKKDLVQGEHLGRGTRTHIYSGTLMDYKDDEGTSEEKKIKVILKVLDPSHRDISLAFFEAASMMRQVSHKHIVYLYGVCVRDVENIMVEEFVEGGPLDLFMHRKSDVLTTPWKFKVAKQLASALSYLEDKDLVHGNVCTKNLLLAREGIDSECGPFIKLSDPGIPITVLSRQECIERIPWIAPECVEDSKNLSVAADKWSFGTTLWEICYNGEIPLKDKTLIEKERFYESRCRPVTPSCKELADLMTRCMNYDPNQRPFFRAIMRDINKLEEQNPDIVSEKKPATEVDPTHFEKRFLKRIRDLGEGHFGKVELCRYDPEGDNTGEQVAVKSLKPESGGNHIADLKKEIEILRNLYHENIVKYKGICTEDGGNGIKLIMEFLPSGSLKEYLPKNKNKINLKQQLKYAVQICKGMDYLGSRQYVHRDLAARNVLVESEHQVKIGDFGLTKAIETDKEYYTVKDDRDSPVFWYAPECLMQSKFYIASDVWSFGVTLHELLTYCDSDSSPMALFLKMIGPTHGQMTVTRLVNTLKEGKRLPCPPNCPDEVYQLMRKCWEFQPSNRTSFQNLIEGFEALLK", "test": "JAK kinase assay (KINASE-GLO luminescent), JAK1 enzyme", "assay_type": "biochemical", "conditions": "JAK1 enzyme 10 nM, Abl peptide substrate", "summary_of_the_method": "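Kinase-Glo luminescence measures ATP remaining after 75 min at room temperature; ATP 2 μM in 4× stock. 11-point 1:5 dilutions, 2.5% DMSO final. Percent of DMSO control per concentration, IC50 by 4-parameter logistic fit.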"}, "JAK2": {"biological_target": "JAK2 (Homo sapiens (Human), UniProt O60674)", "sequence (O60674 whole entry, species assumed)": "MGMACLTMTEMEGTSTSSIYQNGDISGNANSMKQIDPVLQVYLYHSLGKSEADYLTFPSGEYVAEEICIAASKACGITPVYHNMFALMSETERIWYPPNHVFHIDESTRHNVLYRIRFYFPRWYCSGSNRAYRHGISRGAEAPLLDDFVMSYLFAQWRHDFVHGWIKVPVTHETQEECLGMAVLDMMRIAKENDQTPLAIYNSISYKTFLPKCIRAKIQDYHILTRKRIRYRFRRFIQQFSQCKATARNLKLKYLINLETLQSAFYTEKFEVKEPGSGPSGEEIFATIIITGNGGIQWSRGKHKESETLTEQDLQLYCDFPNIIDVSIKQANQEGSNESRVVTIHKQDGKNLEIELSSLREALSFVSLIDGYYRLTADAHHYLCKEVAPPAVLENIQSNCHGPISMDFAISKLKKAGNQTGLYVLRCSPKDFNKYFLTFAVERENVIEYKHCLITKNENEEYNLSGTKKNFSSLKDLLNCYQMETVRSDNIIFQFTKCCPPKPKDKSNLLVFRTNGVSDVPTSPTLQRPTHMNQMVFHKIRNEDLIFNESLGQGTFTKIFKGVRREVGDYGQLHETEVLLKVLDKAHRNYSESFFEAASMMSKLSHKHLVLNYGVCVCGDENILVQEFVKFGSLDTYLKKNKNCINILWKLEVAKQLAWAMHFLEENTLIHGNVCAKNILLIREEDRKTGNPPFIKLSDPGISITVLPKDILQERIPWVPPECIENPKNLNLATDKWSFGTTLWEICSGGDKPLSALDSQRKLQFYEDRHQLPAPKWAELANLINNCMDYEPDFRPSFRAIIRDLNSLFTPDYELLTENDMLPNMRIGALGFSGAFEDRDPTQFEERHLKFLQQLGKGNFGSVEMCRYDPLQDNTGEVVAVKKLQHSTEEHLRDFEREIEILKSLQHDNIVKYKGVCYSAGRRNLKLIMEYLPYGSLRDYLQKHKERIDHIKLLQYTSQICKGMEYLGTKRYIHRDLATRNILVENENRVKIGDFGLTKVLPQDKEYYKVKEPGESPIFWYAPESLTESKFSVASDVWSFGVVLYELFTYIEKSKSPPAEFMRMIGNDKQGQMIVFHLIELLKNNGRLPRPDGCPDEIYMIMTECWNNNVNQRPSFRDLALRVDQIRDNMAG", "test": "JAK kinase assay (KINASE-GLO luminescent), JAK2 enzyme", "assay_type": "biochemical", "conditions": "JAK2 enzyme 10 nM, Abl peptide substrate", "experimental": "All compounds were initially prepared as 10 mM stocks in anhydrous dimethylsulfoxide (DMSO). A 20 μL aliquot of the 10 mM solutions was transferred to individual wells in column 1 of a 96-well polypropylene microtiter plate (Corning #3363) and diluted with DMSO to give a final compound concentration of 4 mM. Test compounds were then serially diluted 1:5 in DMSO for an 11-point concentration response and further diluted in the assay buffer bringing all compound concentrations to a final range of 100 μM to […] in 2.5% DMSO. The assay was performed in white 96-well, flat-bottom, half-area, non-binding assay plate (Corning #3642) in assay buffer consisting of 20 mM HEPES (pH 7.5), 10 mM MgCl2*6H2O, 100 μM sodium orthovanadate, 0.05% CHAPS and 0.1% bovine serum albumin. A 10 μL aliquot of compound from each well of the intermediate dilution plate and 20 μL of a 2× substrate/enzyme solution containing acceptor substrate (800 nM RSK2 peptide […] (SEQ ID NO: 1)), ROCK2 enzyme (10 nM), or ROCK1 enzyme, and 1,4-Dithiothreitol (DTT, 2 uM) were added to all wells. The reaction was initiated by the addition of 10 μL of 4× stock solution ATP (2 μM). Reactions were thoroughly mixed manually, covered, and allowed to incubate at room temperature for 75 min. Protein kinase activity was quantitated using Promega's KINASE-GLO™ luminescent Kinase Assay Kit according to the manufacturer's directions. ATP concentrations remaining in Test wells following the termination of the enzymatic reaction were compared against control wells containing equivalent amounts of DMSO containing no inhibitor (CTRL). […] Percent of Control (POC) values were determined for each concentration of compound tested according to the equation: […]\nIC50 values were calculated using the following 4-parameter logistic curve-fitting algorithm:\nCompounds were prepared in the exact same manner as described in the ROCK Kinase Assay with the exception to the substrate and enzyme. […]"}},
  "data": [
    {"smiles": "Cc1cnc(Nc2ccc3c(c2)CN(C)C3)nc1N1CC(CC#N)(N2CCC(CCF)CC2)C1", "note": "[E112]", "values": [
      {"measurement": "IC50", "setting": "JAK1", "value": "< 0.05", "unit": "µM"},
      {"measurement": "IC50", "setting": "JAK2", "value": "< 0.05", "unit": "µM"}
    ]}
  ]
}
